In ChEMBL document CHEMBL3603789, “N-Lipidated Peptide Dimers: Effective Antibacterial Agents against Gram-Negative Pathogens through Lipopolysaccharide Permeabilization” (J Med Chem, 2015):
In brackets after ≈: the same amount, converted by molar mass. Activity calls are given as the source filed them. The calls are words filed in the database; no cut-off is given here. Bridge positions count the residues as written; N and C are the ends. Peptide text beside a SMILES is read from it. I, II: the chains in the order shown. * marks the point of attachment. Myristoyl = CCCCCCCCCCCCCC(=O)*

Tests used:
[1] = tested on: Klebsiella pneumoniae; assay: Antibacterial activity against Klebsiella pneumoniae DM4299 after 24 hrs by broth microdilution method; format: functional; conditions: DM4299, 24 h
[2] = tested on: Pseudomonas aeruginosa; assay: Antibacterial activity against Pseudomonas aeruginosa ATCC 27853 after 24 hrs by broth microdilution method; format: functional; conditions: ATCC 27853, 24 h
[3] = tested on: Escherichia coli; assay: Antibacterial activity against Escherichia coli ATCC 25922 after 24 hrs by broth microdilution method; format: functional; conditions: ATCC 25922, 24 h
[4] = tested on: Pseudomonas aeruginosa; assay: Antibacterial activity against Pseudomonas aeruginosa DM23155 after 24 hrs by broth microdilution method; format: functional; conditions: DM23155, 24 h
[5] = Induction of calcein leakage from DOPE/DOPG artificial membrane at 1:32 ratio of compound to lipid by fluorescence assay; format: physicochemical
[6] = tested on: Pseudomonas aeruginosa; assay: Antibacterial activity against Pseudomonas aeruginosa ATCC 9027 after 24 hrs by broth microdilution method; format: functional; conditions: ATCC 9027, 24 h
[7] = tested on: Pseudomonas aeruginosa; assay: Antibacterial activity against Pseudomonas aeruginosa DM4150R after 24 hrs by broth microdilution method; format: functional
[8] = tested on: Pseudomonas aeruginosa; assay: Antibacterial activity against Pseudomonas aeruginosa DR5790 after 24 hrs by broth microdilution method; format: functional; conditions: DR5790, 24 h
[9] = tested on: Pseudomonas aeruginosa; assay: Antibacterial activity against Pseudomonas aeruginosa DR18531 after 24 hrs by broth microdilution method; format: functional; conditions: DR18531, 24 h
[10] = tested on: Lipopolysaccharide (LPS); assay: Induction of Escherichia coli 0111:B4 LPS neutralization using p-nitroaniline assessed as concentration required to neutralize 50% after 1 hr by limulus amebocyte lysate assay
[11] = tested on: Lipopolysaccharide (LPS); assay: Displacement of dansylcadaverine from Escherichia coli 0111:B4 LPS at 15 to 30 uM after 5 mins by high-throughput fluorescence displacement assay
[12] = tested on: Pseudomonas aeruginosa; assay: Antibacterial activity against Pseudomonas aeruginosa DU14476 after 24 hrs by broth microdilution method; format: functional; conditions: DU14476, 24 h
[13] = tested on: Pseudomonas aeruginosa; assay: Antibacterial activity against Pseudomonas aeruginosa DM23376 after 24 hrs by broth microdilution method; format: functional; conditions: DM23376, 24 h
[14] = tested on: Pseudomonas aeruginosa; assay: Antibacterial activity against Pseudomonas aeruginosa DM23155 assessed as log reduction of viable count at 2 times MIC after 30 mins by time-kill assay relative to control; format: functional
[15] = tested on: Pseudomonas aeruginosa; assay: Antibacterial activity against Pseudomonas aeruginosa DR4877 after 24 hrs by broth microdilution method; format: functional; conditions: DR4877, 24 h
[16] = tested on: Pseudomonas aeruginosa; assay: Induction of cytoplasmic membrane disruption in Pseudomonas aeruginosa DM23155 assessed as membrane integrity at 1 to 2 times MIC after 1 hr by fluorescence assay; format: functional
[17] = Toxicity in New Zealand white rabbit erythrocytes assessed as hemolytic activity after 60 mins; format: cell-based, Oryctolagus cuniculus; conditions: erythrocyte, 1 h
[18] = tested on: Pseudomonas aeruginosa; assay: Antibacterial activity against Pseudomonas aeruginosa DM23257 after 24 hrs by broth microdilution method; format: functional; conditions: DM23257, 24 h
[19] = Induction of calcein leakage from DOPC artificial membrane at 1:32 ratio of compound to lipid by fluorescence assay; format: physicochemical
[20] = Self-aggregation activity of the compound using 8-(Phenylamino)-1-naphthalenesulfonic acid as fluorescent probe at 300 uM by fluorescence assay in presence of 150 mM of NaCl; format: physicochemical
[21] = Self-aggregation activity of the compound using 8-(Phenylamino)-1-naphthalenesulfonic acid as fluorescent probe at 100 uM by fluorescence assay; format: physicochemical
[22] = Self-aggregation activity of the compound using 8-(Phenylamino)-1-naphthalenesulfonic acid as fluorescent probe at 20 uM by fluorescence assay; format: physicochemical

SMILES | MIC [1] | MIC [3] | MIC [4] | Activity [5] | EC50 [10] | Activity [11] | Activity [16] | HC10 [17] | further results
CC(C)[C@H](NC(=O)[C@H](CCCCN)NC(=O)[C@H](CCCNC(=N)N)NC(=O)CNC(=O)[C@@H](N)CCCNC(=N)N)C(=O)N[C@H](C(=O)N[C@@H](CCCNC(=N)N)C(=O)N[C@@H](CCCNC(=N)N)C(=O)NCCCC[C@H](NC(=O)[C@H](CCCNC(=N)N)NC(=O)[C@H](CCCNC(=N)N)NC(=O)[C@@H](NC(=O)[C@@H](NC(=O)[C@H](CCCCN)NC(=O)[C@H](CCCNC(=N)N)NC(=O)CNC(=O)[C@@H](N)CCCNC(=N)N)C(C)C)C(C)C)C(=O)N[C@@H](CCCCN)C(=O)O)C(C)C (I: H-RGRKVVRRKK-OH / II: H-RGRKVVRR; amide I:9-II:C) | 6 µM (≈ 13.7 µg/mL) | 3 µM (≈ 6.87 µg/mL) | 6 µM (≈ 13.7 µg/mL) | Active | > 1000 µM | 82.4% | >80% | > 10000 µg/mL | MIC [2]: 6 µM (≈ 13.7 µg/mL); MIC [6]: 6 µM (≈ 13.7 µg/mL); MIC [7]: 3 µM (≈ 6.87 µg/mL); MIC [8]: 10 µM (≈ 22.9 µg/mL); MIC [9]: 3 µM (≈ 6.87 µg/mL); MIC [12]: 6 µM (≈ 13.7 µg/mL); MIC [13]: 6 µM (≈ 13.7 µg/mL); Activity [14]: inactive; MIC [15]: 6 µM (≈ 13.7 µg/mL); MIC [18]: 3 µM (≈ 6.87 µg/mL)
CCCCCCCCCCCCCC(=O)N[C@@H](CCCNC(=N)N)C(=O)NCC(=O)N[C@@H](CCCNC(=N)N)C(=O)N[C@@H](CCCCN)C(=O)N[C@H](C(=O)N[C@H](C(=O)N[C@@H](CCCNC(=N)N)C(=O)N[C@@H](CCCNC(=N)N)C(=O)NCCCC[C@H](NC(=O)[C@H](CCCNC(=N)N)NC(=O)[C@H](CCCNC(=N)N)NC(=O)[C@@H](NC(=O)[C@@H](NC(=O)[C@H](CCCCN)NC(=O)[C@H](CCCNC(=N)N)NC(=O)CNC(=O)[C@H](CCCNC(=N)N)NC(=O)CCCCCCCCCCCCC)C(C)C)C(C)C)C(=O)N[C@@H](CCCCN)C(=O)O)C(C)C)C(C)C (I: Myristoyl-RGRKVVRRKK-OH / II: Myristoyl-RGRKVVRR; amide I:9-II:C) | 10 µM (≈ 27.1 µg/mL) | 1.5 µM (≈ 4.07 µg/mL) | 3 µM (≈ 8.13 µg/mL) | Active | 32.1 µM | 135% | <50% | 252 µg/mL | Activity [19]: Active; Activity [20]: Active; Activity [21]: 50%; Activity [22]: 50%
